From patent US20260258373A1, “PEPTIDE TAGS FOR PHAGE IMAGING” (priority 2022, published 2026)
Where two headings read alike, the source gives them in different places. Cy5 = cyanine 5 dye

Legend:
[1] = test system: GV bound to P. aeruginosa cells; test: Flow cytometry of GVBP-Cy5, cells with phages; format: binding, Good Vibes phage on Pseudomonas aeruginosa
Protocol: (§1) An overnight culture of P. aeruginosa was diluted 100-fold in fresh medium. The culture was incubated at 37° C. to reach OD600~0.2 before adding ~10^11 pfu of GV to the cells and incubating at 37° C. for 15 min. The cells were pelleted by centrifugation (6000 g, 15 min, at room temperature), washed once with 800 μL TM buffer (10 mM Tris base, 5 μM CaCl2), 10 mM MgSO4, pH 7.4) and resuspended in 200 μL of the same buffer. Applicant added GVBP-Cy5 (2×10^13 units) and incubated the mixture for 15 min at room temperature before centrifugal washing three times with 0.1% PBST (6000 g, 5 min, at room temperature). The pellet was resuspended in 200 μL TM buffer and the binding of GVBP-Cy5 to GV was analyzed using an Accuri C6 Plus flow cytometer (BD Biosciences). A total of 30,000 events were collected for each analysis.

[2] = test system: P. aeruginosa cells; test: Flow cytometry of GVBP-Cy5, cells without phages; format: binding, Pseudomonas aeruginosa
Protocol: as §1

[3] = test system: Good Vibes phage (GV); test: GVBP-Cy5 ELISA; format: binding; settings: GV 0.1, 1, 10 or 63 μg coated; 0.05 μg peptide; fluorescence 647/665 nm; FIG. 5C
Protocol: Applicant then added 0.05 μg of GVBP-Cy5 peptide and incubated for 1 h. […] The fluorescence was measured using an Infinite 200 Rx plate reader with excitation and emission wavelengths of 647 and 665 nm, respectively, and a gain of 50.

[4] = test system: Good Vibes phage (GV); settings: GV 1, 10 or 65 μg coated; 0.01 μg peptide; absorbance 450 nm; FIG. 5B
Protocol: GV (1, 10 or 65 μg) was coated onto Nunc Maxisorp flat-bottom 96-well plates and incubated for 1 h at room temperature, shaking at 400 rpm. All incubation and washing steps were carried out at room temperature, shaking at 400 rpm, unless otherwise stated. The wells were blocked for 1 h with 300 μL 5% (w/v) BSA followed by washing once with 0.1% PBST for 5 min. Applicant then added 0.01 μg of GVBP-biotin peptide to the wells and incubated for 1 h. The wells were then washed three times with 0.1% PBST for 5 min each before adding streptavidin HRP conjugate (ab7403) diluted 1:10,000 and incubating for 30 min. The wells were washed another three times as above before adding 100 μL of TMB substrate and incubating for 5-10 min in the dark. The reaction was stopped by adding 50 μL 2M H2SO4 and the absorbance was measured at 450 nm using an Infinite 200 Rx plate reader as described above.

[5] = test system: Matera (MAT); test: Monoclonal phage ELISA (cross-reactivity / validation) against MAT; format: binding, Matera (family Myoviridae); settings: peptide displayed on monoclonal phage; cross-reactivity assay
[6] = test system: Good Vibes phage (GV); test: Monoclonal phage ELISA (cross-reactivity / validation) against GV; format: binding; settings: peptide displayed on monoclonal phage; cross-reactivity assay
Protocol: (§2) A Nunc Maxisorp flat-bottom 96-well plate was coated with 6×10^9 pfu GV per well (in TBS, pH 8) and incubated overnight at 4° C. Plates coated with 2% (w/v) bovine serum albumin (BSA) were used as negative controls. Next day, the plates were blocked with 2% (w/v) BSA at room temperature for 1 h, shaking at 800 rpm. The plates were then washed with 0.1% TBST (3×1 min) before adding 20 μL of amplified phage from each biopanning cycle to each well in 5% (w/v) BSA. After further incubation at room temperature for 1 h, shaking at 800 rpm, the plates were washed with 0.5% TBST (3×5 min) before adding 100 μL horseradish peroxidase (HRP)-conjugated anti-M13 monoclonal antibody (Abcam ab50370, diluted 1:500) and incubating at room temperature for 1 h, shaking at 800 rpm. After further washes in 0.5% TBST (3×5 min), Applicant added 100 μL of the tetramethylbenzidine (TMB) substrate (Thermo Fisher Scientific) to each well. The plates were incubated in the dark for 10 min and the absorbance was measured at 370 nm using an Infinite 200 Rx plate reader (Tecan Life Sciences) with 25 flashes in 96-well flat-bottom plate mode.
The protocol was similar to the polyclonal ELISA. […] Monoclonal phages differing in absorbance between GV and BSA by at least 0.3 units were isolated for DNA sanger sequencing (Eurofins Genomics). […]

[7] = test system: cowpea mosaic virus (CPMV); test: Cross-reactivity ELISA against CPMV; format: binding; settings: peptide displayed on monoclonal phage; cross-reactivity assay
Protocol: as §2
(§3) The protocol was similar to the polyclonal ELISA. Applicant coated wells with 10 μg cowpea mosaic virus (CPMV) or 1010 GV particles to assess their binding activity.

[8] = biological target: BSA (Bos taurus, UniProt P02769); test: Cross-reactivity ELISA against BSA (negative control); format: binding, bovine; settings: peptide displayed on monoclonal phage, cross-reactivity assay
Protocol: as §2, §3

[9] = biological target: Good Vibes phage (GV); test: competitive ELISA, GVER2738 against GVER2738_SYBR on GV-coated wells and on BSA-coated wells

Row | Molecule | ELISA signal against MAT [5] | ELISA signal against GV [6] | ELISA signal against CPMV [7] | ELISA signal against BSA [8] | also measured
1 | H2N-WDLPPIGRLSGNGGGSK/Cy5/—CO2H (H-WDLPPIGRLSGNGGGSK(Cy5)-OH; also: C-terminal Cy5, attachment not given here) [GVBP-Cy5] |  |  |  |  | fluorescent signal (median fluorescence intensity, MFI) ([1]; cells and phages plus GVBP-Cy5, FIG. 6B): strongest fluorescent signal; APC+ shift ([1]; population containing both P. aeruginosa cells and GV phages, in the presence of GVBP-Cy5, FIG. 6A panel iv): 15.4%; binding to GV by flow cytometry ([1]; summary statement): significant binding; fluorescent signal (median fluorescence intensity, MFI) ([2]; in the absence of phage, FIG. 6B): weaker signal; APC+ shift ([2]; population containing P. aeruginosa cells without phages, peptide added, FIG. 6A panel iii): 7.6%; intensity of signal of bound peptide with increasing amounts of GV coating the plates [3]: became stronger
2 | H2N-WDLPPIGRLSGNGGGSK/biotin/—CO2H [GVBP-biotin] |  |  |  |  | intensity of signal of bound peptide with increasing amounts of GV coating the plates [4]: became stronger
3 | THLPPIMRNLQF | strong signal | strong signal | not against CPMV or BSA | not against CPMV or BSA | 
4 | WDLPPIGRLSGN [H2N-WDLPPIGRLSGN—CO2H] | strong signal | strong signal | not against CPMV or BSA | not against CPMV or BSA | 
5 | WDLPPIGRLSGN (modifications not checked) [monoclonal phage GVER2738 displaying the peptide …] |  |  |  |  | fold of KD value, GV against BSA [9]: 12 times
